Measured values from ChEMBL document CHEMBL5576067, “Synthesis and biological evaluation of novel 1,2,3,4-tetrahydro-β-carboline derivatives as potential antibacterial agents” (Bioorg Med Chem Lett, 2024).
In brackets after ≈: the same amount, converted by molar mass. Activity calls are given as the source filed them. No cut-off for these calls is given here.

Tests used:
Staphylococcus aureus [1] = experiment: Bactericidal activity against Staphylococcus aureus ATCC25923 assessed as inhibition of bacterial growth incubated for 24 hrs by resazurin dye based analysis; format: functional
Enterococcus faecium = experiment: Antibacterial activity against vancomycin-resistant Enterococcus faecium ATCC 700221 assessed as inhibition of bacterial growth incubated for 24 hrs by broth microdilution method; format: functional
Escherichia coli = experiment: Antibacterial activity against Escherichia coli ATCC25922 assessed as inhibition of bacterial growth incubated for 24 hrs by broth microdilution method; format: functional
Ralstonia solanacearum = experiment: Antibacterial activity against Ralstonia solanacearum assessed as inhibition of bacterial growth incubated for 24 hrs by broth microdilution method; format: functional
Staphylococcus aureus [2] = experiment: Antibacterial activity against methicillin resistant Staphylococcus aureus ATCC33591 assessed as reduction in viable bacterial count at 2 times MIC measured within 24 hrs by time kill assay relative to control; format: functional
Staphylococcus aureus [3] = experiment: Antibacterial activity against methicillin resistant Staphylococcus aureus ATCC33591 assessed as eradication of viable bacteria at >8 times MIC measured after 24 hrs by time kill assay; format: functional, organism-based
Staphylococcus aureus [4] = experiment: Antibacterial activity against methicillin resistant Staphylococcus aureus ATCC33591 assessed as inhibition of bacterial growth at 1 times MIC incubated for 24 hrs by time kill assay; format: functional, organism-based
Staphylococcus aureus [5] = experiment: Antibacterial activity against Staphylococcus aureus ATCC25923 assessed as inhibition of bacterial growth incubated for 24 hrs by broth microdilution method; format: functional
Staphylococcus aureus [6] = experiment: Antibacterial activity against methicillin resistant Staphylococcus aureus ATCC33591 infected in mouse model of abdominal infection assessed as reduction in mean bacterial load in blood at 5 mg/kg, ip treated for 24 hrs starting from 2 hrs post infection relative to control; format: functional; design: scale not given: the % may be the effect or the level left
[7] = Cytotoxicity against human L02 cells assessed as cell viability at 32 to 64 ug/ml measured after 24 hrs by MTT assay; format: toxicity, cell-based; conditions: at 32 to 64 µg/mL, dose 32-64 µg/ml, read-out: Activity
Staphylococcus aureus [8] = experiment: Antibacterial activity against methicillin resistant Staphylococcus aureus ATCC33591 assessed as inhibition of bacterial growth incubated for 24 hrs by broth microdilution method; format: functional
[9] = Cytotoxicity against human HepG2 cells assessed as cell viability at 32 to 64 ug/ml measured after 24 hrs by MTT assay; format: toxicity, cell-based; conditions: at 32 to 64 µg/mL, dose 32-64 µg/ml, read-out: Activity
Staphylococcus aureus [10] = experiment: Antibacterial activity against methicillin resistant Staphylococcus aureus ATCC33591 assessed as post antibiotic effect at 8 ug/ml measured after 2 hrs; format: functional; conditions: dose 8 µg/ml
Staphylococcus aureus [11] = experiment: Antibacterial activity against methicillin resistant Staphylococcus aureus ATCC33591 infected in mouse model of abdominal infection assessed as reduction in mean bacterial load in blood at 10 mg/kg, ip treated for 24 hrs starting from 2 hrs post infection relative to control; format: functional; design: scale not given: the % may be the effect or the level left
Staphylococcus aureus [12] = experiment: Antibacterial activity against methicillin resistant Staphylococcus aureus ATCC33591 assessed as post antibiotic effect at 16 ug/ml measured after 2 hrs; format: functional; conditions: dose 16 µg/ml
[13] = Antibacterial activity against Pseudomonas syringae pv. actinidiae assessed as inhibition of bacterial growth incubated for 24 hrs by broth microdilution method; format: functional
Staphylococcus aureus [14] = experiment: Bactericidal activity against methicillin resistant Staphylococcus aureus ATCC33591 assessed as inhibition of bacterial growth incubated for 24 hrs by resazurin dye based analysis; format: functional
Staphylococcus aureus [15] = experiment: Drug resistance, ratio of MIC for methicillin-resistant Staphylococcus aureus ATCC33591 after 18 passages to MIC for methicillin-resistant Staphylococcus aureus ATCC33591 after initial exposure; format: functional
Staphylococcus aureus [16] = experiment: Antibacterial activity against methicillin resistant Staphylococcus aureus ATCC33591 assessed as eradication of viable bacteria at >=4 times MIC measured within 24 hrs by time kill assay relative to control; format: functional
Staphylococcus aureus [17] = experiment: Ratio of MBC to MIC for Staphylococcus aureus ATCC25923; format: functional
Staphylococcus aureus [18] = experiment: Drug resistance, ratio of MIC for methicillin-resistant Staphylococcus aureus ATCC33591 after 19 passages to MIC for methicillin-resistant Staphylococcus aureus ATCC33591 after initial exposure; format: functional
Staphylococcus aureus [19] = experiment: Drug resistance, ratio of MIC for methicillin-resistant Staphylococcus aureus ATCC33591 after 16 passages to MIC for methicillin-resistant Staphylococcus aureus ATCC33591 after initial exposure; format: functional

`O=C(Nc1ccc(C2NCCc3c2[nH]c2ccccc32)cc1)c1ccc(C(F)(F)F)cc1` (stereo unspecified) showed an MBC (Staphylococcus aureus [1]) of 4 µg/mL (≈ 9.19 µM), an MIC (Enterococcus faecium) of 64 µg/mL (≈ 147 µM) and an MIC (Escherichia coli) of 4 µg/mL (≈ 9.19 µM). The MIC (Ralstonia solanacearum) was 4 µg/mL (≈ 9.19 µM), the Activity (Staphylococcus aureus [2]) was 87.7% and the Activity (Staphylococcus aureus [3]) was “Active”. The Activity (Staphylococcus aureus [4]) was “Active”, the MIC (Staphylococcus aureus [5]) was 4 µg/mL (≈ 9.19 µM) and the Activity (Staphylococcus aureus [6]) was 9.8%. The viability at 24 h [7] was > 95%, the MIC (Staphylococcus aureus [8]) was 4 µg/mL (≈ 9.19 µM) and the viability at 24 h [9] was > 95%. For the same compound, the PAE (Staphylococcus aureus [10]) was 1.78 h, the Activity (Staphylococcus aureus [11]) was 26% and the PAE (Staphylococcus aureus [12]) was 2.63 h. The MIC [13] was 16 µg/mL (≈ 36.7 µM), the MBC (Staphylococcus aureus [14]) was 4 µg/mL (≈ 9.19 µM) and the Ratio (Staphylococcus aureus [15]) was <4. The Activity (Staphylococcus aureus [16]) was 94.3% and the Ratio (Staphylococcus aureus [17]) was 1.
Work on `CO[C@H]1/C=C/O[C@@]2(C)Oc3c(C)c(O)c4c(O)c(c(/C=N/N5CCN(C)CC5)c(O)c4c3C2=O)NC(=O)/C(C)=C\C=C\[C@H](C)[C@H](O)[C@@H](C)[C@@H](O)[C@@H](C)[C@H](OC(C)=O)[C@@H]1C` [RIFAMPIN] yielded an MBC (Staphylococcus aureus [1]) of 2 µg/mL (≈ 2.43 µM), an MIC (Staphylococcus aureus [5]) of 0.25 µg/mL (≈ 0.304 µM) and a Ratio (Staphylococcus aureus [18]) of 1024. The Ratio (Staphylococcus aureus [19]) was 256, the MIC (Staphylococcus aureus [8]) was 0.25 µg/mL (≈ 0.304 µM) and the MBC (Staphylococcus aureus [14]) was 1 µg/mL (≈ 1.22 µM).
